From paper PMC11418636, “Evaluating the potential of non‐immunosuppressive cyclosporin analogs for targeting Toxoplasma gondii cyclophilin: Insights from structural studies” (Protein Science : A Publication of the Protein Society, 2024)
Where two headings read alike, the source gives them in different places.

What was measured:
[1] = target: T1, TgCyp23 (Toxoplasma gondii, UniProt B9PS61); test: Isothermal titration calorimetry (ITC) binding to TgCyp23; details: 20°C, 50 mM HEPES pH 8.0, 100 mM NaCl, error SEM of triplicate
Method: Isothermal titration calorimetry (ITC) experiments were performed on a PEAQ‐ITC instrument from MicroCal (Northampton, MA) as previously described (Bombardi et al., [2022]; Conter et al., [2021]; Favretto et al., [2023]). Stock solutions of dhCsA, NIM811, and Alisporivir were prepared in 100% EtOH and successively diluted in a buffer of 50 mM HEPES, pH 8.0, 100 mM NaCl at a final concentration of 8 μM. […] The analog solutions were titrated with 2 μL (total 19 injections) of a 66 μM TgCyp23 solution supplemented with 0.1% EtOH. All the experiments were executed at an operating temperature of 20°C and a time gap of 150 s between each injection. Protein and ligand samples were filtered and degassed thoroughly before the experiments. Reference experiments were performed in the absence of a ligand or a protein, and the heat of dilution was subtracted from each experiment. Each titration set was repeated as a triplicate and the error was estimated as the SEM. The data were analyzed using the software MicroCal Origin, and the apparent dissociation constants Kd, the enthalpy changes (ΔH), and entropy changes (ΔS) were obtained.

[2] = target: T1, TgCyp23; test: Stopped-flow rapid kinetics of binding to TgCyp23; details: association rate constant, 20°C, pH 7.4, 0.5 μM TgCyp23, ligands 1 to 7 μM
Method: Stopped‐flow experiments were performed on an SX‐18 stopped‐flow apparatus (Applied Photophysics, Leatherhead, UK) at 20°C in 50 mM Hepes, 150 mM NaCl, 1 mM DTT (pH 7.4). Fluorescence emission was measured using a 320 nm cutoff filter (λex = 280 nm). The concentration of TgCyp23 after mixing was 0.5 μM, and the concentration of ligands after mixing ranged from 1 to 7 μM. For each trace, data from 4 to 6 injections were averaged and fitted with a single exponential function, excluding data points in the dead‐time of the stopped flow (<2 ms).

[3] = target: T1, TgCyp23; test: Circular dichroism (CD) thermal denaturation of TgCyp23 with ligands; type: binding; details: melting temperature of TgCyp23 with saturating ligand, 224 nm; TgCyp23 alone 52 ± 1
Method: Circular dichroism (CD) assays were conducted on a Jasco J‐1500 spectropolarimeter equipped with a Peltier temperature controller following the protocol described in (Bombardi et al., [2020]; Favretto et al., [2023]; Trande et al., [2019]; ). Briefly, denaturation profiles in the presence of saturating concentrations of ligands were obtained by monitoring the loss of secondary structure of TgCyp23 at 224 nm in the temperature range of 15–100°C, with a scan rate of 1.5°C/min. The protein concentration was 0.2 mg/mL, and the buffer used was 50 mM HEPES at pH 8.0 with 100 mM NaCl.

[4] = target: T1, TgCyp23; test: Differential scanning calorimetry (DSC) of TgCyp23 with ligands; type: binding; details: melting temperature of 70 μM TgCyp23 with ligand; TgCyp23 alone 49 ± 1
Method: Differential scanning calorimetry (DSC) experiments were conducted using a nano‐DSC (TA instrument) with a cell volume of 300 μL (Favretto et al., [2023]). […] Data were fitted according to a two‐state model using NanoAnalyze software (TA instrument).

[5] = target: T1, TgCyp23; test: PPIase inhibition, protease-coupled assay with AAPF peptide; type: biochemical; details: PPIase activity, TgCyp23 7 nM, ligand 0 to 30 nM, 10 min on ice; error SEM of triplicate
Method: PPIase activity was determined using the synthetic peptide N‐succinyl‐Ala‐Ala‐Pro‐Phe‐p‐nitroanilide (AAPF) based on the protease‐coupled assay as described in (Favretto et al., [2023]; Kofron et al., [1991]). In inhibition assays, TgCyp23 (7 nM) was incubated for 10 min on ice in the presence of increasing concentrations of the three analogs, ranging from 0 to 30 nM, before the addition of the AAPF peptide. In all experiments, the slope of the catalyzed reaction was corrected for spontaneous thermal cis–trans isomerization in the presence of chymotrypsin alone.
The residual enzymatic activity was estimated from the initial velocities of each catalyzed reaction and expressed as a percentage (%) of the original enzymatic activity (Astegno et al., [2017]). Residual enzymatic activities were plotted against ligand concentrations, and the obtained curve was analyzed to determine the IC50 value for each tested ligand. The experiments were repeated in triplicate, and the error was estimated as the standard error of the mean (SEM).

[6] = target: CypA; details: Ptak et al., 2008, read-out: Ki, inhibition of CypA PPIase activity, cited from earlier work

T1 sequence (B9PS61 entry or part of it): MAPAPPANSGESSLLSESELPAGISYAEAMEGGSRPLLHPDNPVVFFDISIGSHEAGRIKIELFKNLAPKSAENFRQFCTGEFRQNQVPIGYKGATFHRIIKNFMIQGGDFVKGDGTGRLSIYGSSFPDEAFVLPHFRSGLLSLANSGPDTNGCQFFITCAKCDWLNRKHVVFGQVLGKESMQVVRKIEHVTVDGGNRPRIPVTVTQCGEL

Row | Structure (SMILES) | Kd [1] [nM] | kon [2] [M⁻¹ s⁻¹] | Tm (CD) [3] [°C] | Tm (DSC) [4] [°C] | IC50 [5] [nM] | Ki ([6]; ref Coelmont et al., 2010, de Wilde et al., 2013, Gallay & Lin, 2013) [nM] | Ki ([6]; ref Schiene-Fischer et al., 2022) [nM]
1 | C/C=C/C[C@@H](C)[C@@H](O)[C@H]1C(=O)N[C@@H](CC)C(=O)N(C)[C@H](C)C(=O)N(CC)[C@@H](C(C)C)C(=O)N[C@@H](C(C)C)C(=O)N(C)[C@@H](CC(C)C)C(=O)N[C@@H](C)C(=O)N[C@H](C)C(=O)N(C)[C@@H](CC(C)C)C(=O)N(C)[C@@H](CC(C)C)C(=O)N(C)[C@@H](C(C)C)C(=O)N1C [Alisporivir, MeAla-3-EtVal-4-Cyclosporin] | 15 ± 3 | 3.97e+06 ± 210000 | 59 ± 1 | 55 ± 1 | 0.77 ± 0.01 | 0.34 | –
2 | C/C=C/C[C@@H](C)[C@@H](O)[C@H]1C(=O)N[C@@H](CC)C(=O)N(C)CC(=O)N(C)[C@@H]([C@@H](C)CC)C(=O)N[C@@H](C(C)C)C(=O)N(C)[C@@H](CC(C)C)C(=O)N[C@@H](C)C(=O)N[C@H](C)C(=O)N(C)[C@@H](CC(C)C)C(=O)N(C)[C@@H](CC(C)C)C(=O)N(C)[C@@H](C(C)C)C(=O)N1C [NIM811, MeIle-4-Cyclosporin] | 43 ± 10 | 2.77e+06 ± 150000 | 58 ± 1 | 56 ± 1 | 0.85 ± 0.03 | – | 2.1
3 | CCCC[C@@H](C)[C@@H](O)[C@H]1C(=O)N[C@@H](CC)C(=O)N(C)CC(=O)N(C)[C@@H](CC(C)C)C(=O)N[C@@H](C(C)C)C(=O)N(C)[C@@H](CC(C)C)C(=O)N[C@@H](C)C(=O)N[C@H](C)C(=O)N(C)[C@@H](CC(C)C)C(=O)N(C)[C@@H](CC(C)C)C(=O)N(C)[C@@H](C(C)C)C(=O)N1C [dhCsA, Dihydrocyclosporin A] | 200 ± 92 | 1.85e+06 ± 110000 | 57 ± 1 | 53 ± 1 | 1.2 ± 0.2 | – | –
